Results published in the NIST ThermoML archive (doi:10.1021/acs.jced.7b00106).

Conditions: Hot wire method

FC(F)(F)/C=C/Cl [(E)-1-chloro-3,3,3-trifluoroprop-1-ene]
Conditions | thermal conductivity [W/m/K]
323.1 K, 34268 kPa, Liquid | 0.09193
323.1 K, 66598 kPa, Liquid | 0.1029
323.11 K, 123 kPa, Gas | 0.01239
323.13 K, 141 kPa, Gas | 0.01226
323.13 K, 436 kPa, Liquid | 0.07562
323.13 K, 34301 kPa, Liquid | 0.09204
323.15 K, 9819 kPa, Liquid | 0.08053
323.15 K, 56133 kPa, Liquid | 0.09946
323.17 K, 162 kPa, Gas | 0.01242
323.18 K, 25073 kPa, Liquid | 0.08808
323.2 K, 191 kPa, Gas | 0.01256
323.22 K, 5184 kPa, Liquid | 0.07808
323.24 K, 99 kPa, Gas | 0.01215
323.24 K, 43827 kPa, Liquid | 0.09508
323.25 K, 99 kPa, Gas | 0.01276
323.25 K, 164 kPa, Gas | 0.01258
323.26 K, 123 kPa, Gas | 0.01268
323.26 K, 43810 kPa, Liquid | 0.0946
323.3 K, 34263 kPa, Liquid | 0.09159
323.32 K, 34298 kPa, Liquid | 0.09169
323.33 K, 446 kPa, Liquid | 0.07514
323.39 K, 25067 kPa, Liquid | 0.08782
323.41 K, 123 kPa, Gas | 0.01233
323.45 K, 161 kPa, Gas | 0.01242
323.47 K, 142 kPa, Gas | 0.0127
323.52 K, 66583 kPa, Liquid | 0.1032
323.54 K, 259 kPa, Gas | 0.01261
323.54 K, 66602 kPa, Liquid | 0.103
323.57 K, 16961 kPa, Liquid | 0.08443
323.6 K, 56150 kPa, Liquid | 0.09972
323.64 K, 165 kPa, Gas | 0.01259
323.64 K, 189 kPa, Gas | 0.01262
323.65 K, 123 kPa, Gas | 0.01276
323.66 K, 9815 kPa, Liquid | 0.08057
323.69 K, 99 kPa, Gas | 0.01287
323.72 K, 123 kPa, Gas | 0.01229
323.73 K, 66589 kPa, Liquid | 0.103
323.75 K, 66615 kPa, Liquid | 0.1027
323.76 K, 5178 kPa, Liquid | 0.07818
323.77 K, 160 kPa, Gas | 0.01238
323.77 K, 16953 kPa, Liquid | 0.08413
323.81 K, 56140 kPa, Liquid | 0.09958
323.87 K, 438 kPa, Liquid | 0.07537
323.88 K, 9798 kPa, Liquid | 0.08054
323.92 K, 142 kPa, Gas | 0.01276
323.98 K, 5181 kPa, Liquid | 0.07788
323.99 K, 260 kPa, Gas | 0.01261
324.07 K, 165 kPa, Gas | 0.01273
324.09 K, 123 kPa, Gas | 0.0128
324.11 K, 428 kPa, Liquid | 0.07518
324.12 K, 188 kPa, Gas | 0.01262
324.17 K, 99 kPa, Gas | 0.01287
324.41 K, 142 kPa, Gas | 0.01275
324.45 K, 260 kPa, Gas | 0.01268
324.52 K, 165 kPa, Gas | 0.01271
324.55 K, 123 kPa, Gas | 0.01276
324.61 K, 187 kPa, Gas | 0.01271
324.68 K, 99 kPa, Gas | 0.0129
324.93 K, 141 kPa, Gas | 0.01279
324.96 K, 260 kPa, Gas | 0.01269
324.99 K, 163 kPa, Gas | 0.01274
325.04 K, 123 kPa, Gas | 0.01286
325.13 K, 186 kPa, Gas | 0.01278
325.22 K, 99 kPa, Gas | 0.01286
325.47 K, 141 kPa, Gas | 0.01283
325.5 K, 161 kPa, Gas | 0.01276
325.56 K, 123 kPa, Gas | 0.01283
325.79 K, 99 kPa, Gas | 0.01295
326.04 K, 160 kPa, Gas | 0.01284
326.1 K, 123 kPa, Gas | 0.01295
331.18 K, 333 kPa, Gas | 0.01373
331.42 K, 333 kPa, Gas | 0.01368
331.5 K, 333 kPa, Gas | 0.01298
331.53 K, 115 kPa, Gas | 0.01325
331.54 K, 333 kPa, Gas | 0.01297
331.58 K, 329 kPa, Gas | 0.01333
331.68 K, 333 kPa, Gas | 0.01367
331.75 K, 257 kPa, Gas | 0.01341
331.8 K, 182 kPa, Gas | 0.01323
331.82 K, 332 kPa, Gas | 0.01319
331.83 K, 113 kPa, Gas | 0.01306
331.85 K, 115 kPa, Gas | 0.01325
331.86 K, 333 kPa, Gas | 0.01297
331.89 K, 328 kPa, Gas | 0.01301
331.9 K, 328 kPa, Gas | 0.01382
331.94 K, 333 kPa, Gas | 0.01367
331.97 K, 263 kPa, Gas | 0.01309
332 K, 256 kPa, Gas | 0.01333
332.04 K, 97 kPa, Gas | 0.01346
332.06 K, 181 kPa, Gas | 0.01314
332.08 K, 113 kPa, Gas | 0.01302
332.08 K, 186 kPa, Gas | 0.01344
332.12 K, 331 kPa, Gas | 0.01303
332.14 K, 328 kPa, Gas | 0.01379
332.18 K, 114 kPa, Gas | 0.01353
332.2 K, 328 kPa, Gas | 0.01299
332.25 K, 255 kPa, Gas | 0.01328
332.28 K, 333 kPa, Gas | 0.013
332.3 K, 262 kPa, Gas | 0.01306
332.33 K, 180 kPa, Gas | 0.01309
332.36 K, 113 kPa, Gas | 0.01297
332.37 K, 97 kPa, Gas | 0.01361
332.4 K, 328 kPa, Gas | 0.01373
332.42 K, 185 kPa, Gas | 0.01339
332.52 K, 253 kPa, Gas | 0.01329
332.54 K, 113 kPa, Gas | 0.01346
332.56 K, 97 kPa, Gas | 0.01298
332.56 K, 328 kPa, Gas | 0.01325
332.63 K, 178 kPa, Gas | 0.01301
332.63 K, 333 kPa, Gas | 0.01323
332.64 K, 112 kPa, Gas | 0.01294
332.66 K, 260 kPa, Gas | 0.01314
332.67 K, 328 kPa, Gas | 0.01373
332.71 K, 98 kPa, Gas | 0.01354
332.81 K, 183 kPa, Gas | 0.0135
332.81 K, 252 kPa, Gas | 0.01326
332.84 K, 97 kPa, Gas | 0.01292
332.93 K, 177 kPa, Gas | 0.01297
332.95 K, 113 kPa, Gas | 0.01357
332.95 K, 328 kPa, Gas | 0.0132
332.96 K, 113 kPa, Gas | 0.01287
333.06 K, 258 kPa, Gas | 0.01325
333.08 K, 97 kPa, Gas | 0.01356
333.08 K, 333 kPa, Gas | 0.01308
333.14 K, 97 kPa, Gas | 0.01284
333.22 K, 183 kPa, Gas | 0.01328
333.25 K, 176 kPa, Gas | 0.01293
333.35 K, 328 kPa, Gas | 0.0133
333.38 K, 113 kPa, Gas | 0.01357
333.44 K, 97 kPa, Gas | 0.01284
333.49 K, 257 kPa, Gas | 0.01337
333.5 K, 97 kPa, Gas | 0.01356
333.54 K, 333 kPa, Gas | 0.01313
333.58 K, 176 kPa, Gas | 0.01292
333.66 K, 182 kPa, Gas | 0.01345
333.78 K, 328 kPa, Gas | 0.01326
333.82 K, 113 kPa, Gas | 0.0136
333.93 K, 255 kPa, Gas | 0.01332
333.94 K, 97 kPa, Gas | 0.01368
334.01 K, 333 kPa, Gas | 0.01329
334.14 K, 180 kPa, Gas | 0.01351
334.25 K, 328 kPa, Gas | 0.01327
334.31 K, 112 kPa, Gas | 0.01357
334.41 K, 97 kPa, Gas | 0.01363
334.42 K, 254 kPa, Gas | 0.0134
